Here are results for three molecules from US20110173718A1, “HERBICIDE TOLERANT PLANTS” (SYNGENTA CROP PROTECTION, INC., priority 2008, published 2011).

What all share (assay type): biochemical
One assay deals with T1, Chlamydomonas HST (Chlamydomonas reinhardtii, UniProt A1JHN0).
T1 construct: GST (N); made in house; host or cells: E. coli (BL21A1 / BL21DE3), membrane fraction
T1 sequence (A1JHN0 51-370): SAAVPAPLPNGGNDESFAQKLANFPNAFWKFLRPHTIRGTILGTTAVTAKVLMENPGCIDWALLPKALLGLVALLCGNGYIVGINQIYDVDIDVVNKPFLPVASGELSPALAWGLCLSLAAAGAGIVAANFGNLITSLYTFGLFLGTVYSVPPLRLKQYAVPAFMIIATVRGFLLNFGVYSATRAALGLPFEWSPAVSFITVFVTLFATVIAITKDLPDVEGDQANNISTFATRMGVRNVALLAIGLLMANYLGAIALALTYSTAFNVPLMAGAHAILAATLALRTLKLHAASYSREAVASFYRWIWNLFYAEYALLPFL
Description: HST assay (TLC, MFBQ formed), recombinant Chlamydomonas HST in E. coli membranes. The settings on record: TLC, estimated amount of MFBQ formed, relative to controls. The procedure:
Alternatively, Arabidopsis and Chlamydomonas mature HST coding sequences are cloned as GST N-terminal fusion enzymes and expressed in E. coli.
E. coli. BL21A1 cells expressing mature Arabidopsis or Chlamydonionas HST as a GST N-terminal fusion proteins are grown, harvested, broken and membrane fractions expressing HST produced.
For example, 1 ng of recombinant DNA is used to transform BL21DE3 cells to obtain a plateful of individual colonies. One of these colonies is picked and used to inoculate an overnight culture of 100 ml of Luria Broth (LB) supplemented with 50 ug/ml of kanamycin at final concentration, grown at 37° C. with shaking at 220 rpm. Next morning, 10 mls of the overnight culture is used to inoculate 11 of fresh sterile LB supplemented with 50 ug/ml of kanamycin at final concentration, grown at 37° C. with shaking at 220 rpm until the OD reached 0.6 at 600 nm, induced with the addition of 0.1 mM IPTG and left to induce at 15° C. overnight. The cells are harvested by centrifugation at 4600 rpm for 10 min at 4° C. and the pellet stored at −80° C. […] E. coli cell pellet is then resuspended in 25 ml of 50 mM Tris, pH 7.5 supplemented with Roche EDTA-free protease inhibitor tablet (one tablet in 200 mls of buffer). 10 ml of cells are lysed by sonication on ice. The resultant lysed cells are centrifuged at 3000 g for 10 min to pellet the cell nuclei/debris etc. 10 mls of supernatant is aspirated and centrifuged at 150,000 g for 60 min at 4° C. The pellet containing the membranes is resuspended in 2 ml of the above buffer. These samples are stored as 100 ul aliquots at −80° C., after being diluted with addition of glycerol to 50% v/v.
(§1) Prenyltransferase (HST) activities are measured by determining the prenylation rates of [U—^14C]homogentisate using farnesyl diphosphate (FDP) as prenyl donor. ^14C homogentisate is prepared from ^14C tyrosine using L amino acid oxidase and HPPD. For inhibitor testing, compounds are dissolved in dimethylsulfoxide (DMSO). DMSO added at up to 2% v/v has no effect on assays. Control assays contain DMSO at the same concentration as in inhibitor containing assays.
The recombinant Chlamydomonas HST expressed in E. coli membranes is assayed in standard reaction mixtures with 200 μM FDP and 100 μM ^14C-homogentisate (40 dpm/pmol) in 50 mM Tricine-NaOH pH 8.5, 20 mM MgCl2. Assays are started with the addition of enzyme and run for ˜20 min at 28° C.
Recombinant Arabidopsis and Rice HSTs are expressed in insect cells. Assays are run as for Chlamydomonas HST except that assay temperature is 27° C. Assays are stopped with 300 ul of solvent mix (1:2, Chloroform:Methanol) and 100 ul of 0.5% NaCl, agitated/mixed and spun at 13,000 rpm in a benchtop eppendorf centrifuge for 5 minutes. 80 ul of the lower phase extract is loaded onto a TLC plate (silica Gel 60, 20 cm×20 cm) FLA3000 system and run for 35 minutes in dichloromethane. The radioactivity is quantified using a Fuji Phosphoimager and band intensity integrated as quantitative measure of product amount. The bands corresponding to oxidised and reduced 2-methyl-6-farnesyl-1,4-benzoquinol (MFBQ) are identified and the total of the two (oxidised and reduced) band intensities is calculated in order to estimate the total amount of MFBQ product formation. Specific activities of 8 pmol MFBQ min^−1 mg^−1 protein (23 pmol) and 7 pmol MFBQ min^−1 mg^−1 protein (14 pmol) are, for example, estimated for the GST-fusion truncated Arabidopsis HST gene (SEQ ID # 3) expressed in membranes from insect cells 4 days and 5 days after transfection respectively. Similar results are noted from past literature on E. coli expressed Arabidopsis HST. Activity from the insect cell expressed GST-fusion truncated rice HST (SEQ ID# 4) is similar. Expression of the non-truncated HST coding sequences as GST fusions also gives HST activity. […]

The target of a further assay is T2, Arabidopsis HST (Arabidopsis thaliana, UniProt Q1ACB3).
T2 construct: GST (factor Xa cleavage site) (N); made in house; host or cells: Sf9 insect cells (baculovirus, pAcG3X), membrane fraction
T2 sequence (Q1ACB3 70-386): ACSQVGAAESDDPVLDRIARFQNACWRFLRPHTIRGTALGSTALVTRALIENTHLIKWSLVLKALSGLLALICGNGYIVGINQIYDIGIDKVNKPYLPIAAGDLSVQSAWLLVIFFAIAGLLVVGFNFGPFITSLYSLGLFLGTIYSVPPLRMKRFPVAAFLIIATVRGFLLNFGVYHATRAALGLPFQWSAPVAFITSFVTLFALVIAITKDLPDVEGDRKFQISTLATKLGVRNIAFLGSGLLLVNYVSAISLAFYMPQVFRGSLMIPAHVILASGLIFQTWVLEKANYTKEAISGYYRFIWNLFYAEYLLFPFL
The assay can be described thus: HST total extraction (non TLC) assay, recombinant Arabidopsis HST from insect cells. The conditions noted are these: 3 point dose curves only conducted at 50 μM HPP.

Assay [1] deals with HST in spinach chloroplast extract. The assay can be described thus: HST assay (TLC, MFBQ formed), spinach chloroplast extract. The settings on record: 25 ppm; TLC, estimated amount of MFBQ formed, relative to controls. The procedure: HST enzyme preparations for assay are also prepared directly from fresh plant material. For example HST enzyme preparations are from spinach. In the first step intact spinach chloroplasts are prepared from two lots of 500 g of fresh baby spinach leaves (e.g from the salad section of the local supermarket). Prepacked spinach is usually already washed, but if buying loose leaves these must be rinsed in water before proceeding. Stalks, large leaves and mid-ribs are removed. Each 500 g lot of leaves is added to 1.5 l of ‘Grinding medium’ in a 2 L plastic beaker. Grinding medium is cold (4° C.) 50 mM Tricine/NaOH buffer at pH 7.1 containing 330 mM glucose, 2 mM sodium isoascorbate, 5 mM MgCl2 and 0.1% bovine serum albumen The beaker, kept at 4° C., is placed under a Polytron 6000 blender, fitted with a 1.5″cutting probe and the mixture blended in short bursts of 5-8 sec up to 8-10K rpm until all the leaves are macerated. The homogenate is filtered into a 5 L beaker (embedded in an ice bucket) through four layers of muslin, and two layers of 50μ mesh nylon cloth. The filtrate is transferred to 250 ml buckets of a Beckman GS-6 centrifuge and spun at […] (3020 rpm) for 2 min at 4° C. The supernatant is drained away and discarded to leave a sediment of chloroplasts. Chloroplasts are resuspended in a few ml of cold resuspension medium by gentle swirling and gentle use of a quill brush soaked in resuspension medium. Resuspension medium is 50 mM Hepes/KOH pH 7.8 containing 330 mM sorbitol, 2 mM EDTA, 5 mM KH2PO4, 2 mM MgCl2 and 0.1% bovine serum albumen at 4° C. The chloroplasts are resuspended in 5-10 ml of resuspension buffer, recentrifuged down and resuspended again in order to wash them. The chloroplasts are then once again centrifuged down and then broken by resuspension in about 5 ml of 50 mM Tricine-NaOH pH 7.8 to a protein concentration of about 40 mg/ml. The solution is stored frozen at −80° C. in aliquots. This resuspension is defrosted and used directly in HST activity assays. Alternatively, chloroplasts are prepared resuspended in 50 mM Tris/HCl buffer at pH 7.8 containing 330 mM sorbitol (alternative resuspension buffer) and layered on top of a percol gradient (comprising the same buffer containing 45% percol), spun down, the intact chloroplast fraction taken and washed 2 or 3 times in the alternative resuspension buffer and then spun down again, resuspended in breaking buffer (without sorbitol), flash frozen and stored in aliquots at −80° C.
as §1
Assays using spinach chloroplast extracts (100 μl final volume) contain up to 2 mg of chloroplast protein, 50 mM Tricine-NaOH pH 8.5, 50 mM MgCl2, 200 μM farnesyl diphosphate (FDP) and 26 μM ^14C-homogentisate (167 dpm/pmol). Assays are run for about an hour at 28° C. […] Lipophilic reactions products are extracted and analyzed essentially as described in the literature.
Using the above assays percentage inhibition of the amount of MFBQ formed at a range of doses of inhibitors relative to the control amount obtained with no inhibitor present is reported (Table 1). The better inhibitors give greater percentage inhibition at lower doses.

Marks after values point to notes of the source that are not given here.

For the molecule `Cc1cc(C)c(-c2c(O)c3nccnc3n(CC(F)F)c2=O)c(C)c1` [Compound 2.11], at Chlamydomonas HST (25 ppm, read-out: Chlamydomonas. HST % I at 25 ppm), the inhibition at 25 ppm was 80%. Further, the “Estimated IC50 (ppm)” value at Arabidopsis HST is recorded as 31* ppm. Moreover, in assay [1], the “Spinach chloroplast extract % I at 25 ppm” value is listed as 30%.

As for `Cn1c(=O)c(-c2c(F)ccc(Br)c2Cl)c(O)c2nccnc21` [Compound 2.5], at Chlamydomonas HST, the “Chlamydomonas. HST % I at 10 ppm” value is given as 70% and the “Chlamydomonas. HST % I at 100 ppm” value was 90%. Besides, the “Estimated IC50 (ppm)” value at Arabidopsis HST is given as 48* ppm.

As for `Cn1c(=O)c(-c2c(F)ccc(F)c2Cl)c(O)c2nccnc21` [Compound 2.4], at Chlamydomonas HST, the “Chlamydomonas. HST % I at 10 ppm” value was 5% and the “Chlamydomonas. HST % I at 100 ppm” value is 45%. Further, the “Estimated IC50 (ppm)” value at Arabidopsis HST is recorded as 211* ppm.
